Non-standard residues stand in square brackets, D forms with d. No end group written: not given here.
Experiments:
3T3-L1 mouse adipocytes = assay: Free fatty acid levels in 3T3-L1 mouse adipocytes (Example 12, 10 μM); assay type: cell-based; conditions: peptide 10 μM, 20-22 h then 3 h with isoproterenol 1 nM
Experimental: The effect of the peptides on fatty acid metabolism can be assessed using an assay of free fatty acid levels in cultured cells such as mouse adipocytes. Peptides were initially prepared as 10 mM stock in DMSO, diluted to 1 mM in H2O, and used at a final concentration of 10 μM (0.1% DMSO). […] Insulin at 100 nM was added to control wells.

C2C12 cells [1] = assay: ATP levels in cultured C2C12 cells (CellTiter-Glo); assay type: cell-based, mouse; conditions: peptide 10 μM, 3 days with readdition every 24 hours, relative to 0.1% DMSO control
Experimental: The effect of the peptides on cellular metabolism can be assessed using an assay of ATP levels in cultured cells such as mouse myoblast cells. Peptides were initially prepared as 10 mM stock in DMSO, diluted to 1 mM in H2O, and used at a final concentration of 10 μM (0.1% DMSO). […] Lovastatin was prepared as 10 mM stock in 70% Ethanol and used at final concentration of 10 μM containing 0.1% DMSO. CellTiter-Glo® Assay kit was purchased from Promega (Madison, Wis.). […] C2C12 cells were grown in DMEM medium supplemented with 20% FBS with 100 IU/ml penicillin and 100 μg/ml streptomycin. […] C2C12 cells were seeded at 800 cells per well on 96-well plates. […] ATP levels were determined using a CellTiter-Glo Assay kit according to the manufacturer's instructions. Luminescence for each sample well on the plate was measured using a Cytation 3 plate reader (BioTek, Winooski, Vt.). Activity was calculated relative to 0.1% DMSO treated control. The relative standard deviation of the result for the 0.1% DMSO treated control was <5%. […] ATP levels for treatment with lovastatin (10 μM) were <50% of the 0.1% DMSO treated control value.

C2C12 cells [2] = assay: Caspase 3/7 activity in C2C12 cells; assay type: cell-based, mouse; conditions: peptide 10 μM, 24 hours, relative to 0.1% DMSO control
Experimental: The effect of the peptides on cell death/survival can be assessed using a caspase-3/7 assay in cultured cells such as mouse myoblast cells. Peptides were initially prepared as 10 mM stock in DMSO, diluted to 1 mM in H2O, and used at a final concentration of 10 μM (0.1% DMSO). […] Staurosporine (Abcam, Cambridge, Mass.) was dissolved at 10 mM in DMSO as a stock solution. Caspase-Glo 3/7 Assay Reagent was purchased from Promega (Madison, Wis.). C2C12 cell line was purchased from American Type Culture Collection (Manassas, Va.). C2C12 cells were grown in DMEM supplemented with 20% FBS with 100 IU/ml penicillin and 100 μg/ml streptomycin. […] C2C12 cells were seeded at 4,000 cells per well on 96-well plates. […] Caspase 3/7 activity was determined using a Caspase-Glo 3/7 Assay kit according to the manufacturer's instructions. Luminescence for each sample well on the plate was measured using a Cytation 3 plate reader (BioTek, Winooski, Vt.). Activity was calculated relative to 0.1% DMSO control.

C2C12 cells [3] = assay: Glucose utilization in cultured C2C12 cells and insulin dependence; assay type: cell-based, mouse; conditions: 22 h; for Glucose Utilization, Percent of Control Activity No Insulin: peptide 10 μM alone, glucose in medium relative to untreated cells; for Glucose Utilization, Percent of Control Activity With Insulin: peptide 10 μM with 5-20 nM insulin, glucose in medium relative to insulin treated cells
Text: The effect of the peptides on glucose homeostasis can be assessed using an assay to monitor glucose utilization by cultured cells such as mouse myotubes. […] C2C12 mouse muscle cell line was purchased from Millipore Sigma (Saint Louis, Mo.). […] Three days after plating the medium was removed and with Differentiation Medium (DMEM/low glucose (1 g/L)+2% Horse Serum+antibiotics) added. […] After 5 days of differentiation, the medium was removed from myotube cultures and replaced with Assay Medium (DMEM/low glucose (1 g/L)+antibiotics). […] Following the 5 h incubation the medium was removed and fresh Assay Medium containing compounds added; 10 μM peptide in absence or presence of 5-20 nM insulin, or 1 mM metformin as a potent stimulator of glucose utilization. […] Following 22 h incubation, conditioned medium from each well was transferred to a fresh 96-well plate. Glucose concentrations in the medium were determined using a Glucose Assay kit (Abcam; Cambridge, Mass.) according to the manufacturer's instructions; absorbance measured using a Cytation 3 plate reader at 570 nm (BioTek, Winooski, Vt.). Absorbance values were expressed as percent control activity relative to untreated treated cells (no insulin) for 10 μM peptide alone or 5-20 nM insulin treated cells (with insulin) for 10 μM peptide in presence of 5-20 nM insulin. Untreated cells were used as reference for basal glucose utilization. The relative standard deviation from plate to plate of untreated control was <10%. Metformin at 1 mM was used as a potent control for increasing glucose utilization. Glucose levels for metformin (1 mM) treatment were <10% of the untreated control value. Data are presented as averages values from 2-3 independent experiments with each data point performed in triplicate.

C2C12 cells [4] = assay: Cellular ROS levels induced by TBHP in C2C12 cells (DCFDA); assay type: cell-based, mouse; conditions: peptide 10 μM 18-20 hours, then TBHP 100 μM 1 hour; relative to TBHP control
Experimental: The protective or synergistic effect of the peptides on cellular levels of reactive oxygen species (ROS) induced by oxidative stress can be assessed using an assay of ROS in cultured cells such as mouse myoblasts exposed to a suitable oxidative stress. Peptides were initially prepared as 10 mM stock in DMSO, diluted to 1 mM in H2O, and added at a final concentration of 10 μM (0.1% DMSO). […] TBHP was used at final concentration of 100 μM. Sulforaphane at final concentration of 10 μM was used as a protective control against TBHP induced ROS production. […] C2C12 cells were grown in DMEM supplemented with 20% FBS with 100 IU/ml penicillin and 100 μg/ml streptomycin. […] C2C12 cells were seeded at 7,500 cells per well on 96-well plates. […] After 18-20 hours of incubation the cells were loaded with DCFDA for 45 min. TBHP at 100 μM was then added to the appropriate wells for 1 hour. ROS activity was determined using a DCFDA Cellular ROS Detection Assay kit (Abcam, Cambridge, Mass.) according to the manufacturer's instructions. Fluorescence in each sample well on the plate was measured using a Cytation 3 plate reader at Ex/Em=485/535 nm (BioTek, Winooski, Vt.). Activity was calculated relative to TBHP control. The relative standard deviation of the sulforaphane control was <20%. The ROS level produced by the sulforaphane control in the presence of TBHP was 52% of the TBHP control.

| Molecule | Free Fatty Acid Levels, Percent of Isoproterenol Control Activity (3T3-L1 mouse adipocytes) [%] | ATP Levels, Percent of Control Activity (C2C12 cells [1]) [%] | Caspase 3/7 Activity, Percent of Control Activity (C2C12 cells [2]) [%] | Glucose Utilization, Percent of Control Activity No Insulin (C2C12 cells [3]) [%] | Glucose Utilization, Percent of Control Activity With Insulin (C2C12 cells [3]) [%] | Cellular ROS Levels Induced by TBHP, Percent of Control (C2C12 cells [4]) [%] |
| --- | --- | --- | --- | --- | --- | --- |
| 10 (RRMMGMVYQCLCG[dA]; cysteine pairing not given here) [compound 10] | 24.9 | 100.9 | 96.6 | 102.6 | 76.3 | 102.3 |
| CSCC[C@H](NC(=O)CNC(=O)[C@H](CCSC)NC(=O)[C@H](CCSC)NC(=O)[C@H](CCCNC(=N)N)NC(=O)[C@H](CCCNC(=N)N)NC(=O)[C@@H](N)CCSC)C(=O)N[C@H](C(=O)N[C@@H](Cc1ccccc1)C(=O)N[C@@H](CCC(N)=O)C(=O)N[C@@H](CS)C(=O)N[C@@H](CC(C)C)C(=O)N[C@@H](CS)C(=O)NCC(=O)N[C@@H](CC(C)C)C(=O)O)C(C)C [compound 7] | 34.6 | 106.6 | 109.4 | 98.1 | 100.7 | 98.6 |
| 12 (RRMMGMVEQCLCG[dA]; cysteine pairing not given here) [compound 12] | 51.3 | 102.6 | 105.1 | 102.3 | 84.5 | 105 |
| 11 (RRMMGMVAQCLCGA) [compound 11] | 59.2 | 98.0 | 99.1 | 107.2 | 84.5 | 100.6 |
| 16 (RRMMGMVFQCLSG[dA]) [compound 16] | 58.8 | 94.7 | 93.1 | 99.7 | 88.4 | 106.6 |
| CSCC[C@H](NC(=O)CNC(=O)[C@H](CCSC)NC(=O)[C@H](CCSC)NC(=O)[C@H](CCCNC(=N)N)NC(=O)[C@@H](N)CCCNC(=N)N)C(=O)N[C@H](C(=O)N[C@@H](Cc1ccccc1)C(=O)N[C@@H](CCC(N)=O)C(=O)N[C@@H](CO)C(=O)N[C@@H](CC(C)C)C(=O)N[C@@H](CS)C(=O)NCC(=O)N[C@H](C)C(=O)O)C(C)C [compound 15] | 90.8 | 100.4 | 101.6 | 103 | 106.9 | 105.9 |

Source: patent US20220324909A1, “THERAPEUTIC PEPTIDES” (COHBAR, INC., priority 2019, published 2022)
